Data: ChEMBL document CHEMBL5214920, “Emerging impact of triazoles as anti-tubercular agent” (Eur J Med Chem, 2022)
In brackets after ≈: the same amount, converted by molar mass.

Columns and labels:
[1] = system: Mycobacterium tuberculosis; test: Antitubercular activity against Mycobacterium tuberculosis H37Rv assessed as bacterial growth inhibition measured after […] by twofold agar dilution method; format: functional
[2] = system: Mycobacterium tuberculosis; test: Antitubercular activity against Mycobacterium tuberculosis H37Rv assessed as bacterial growth inhibition by direct susceptibility assay; format: functional
[3] = Cytotoxicity against CHO cells assessed as cell growth inhibition by MTT assay; format: toxicity, cell-based, Cricetulus griseus; conditions: chinese hamster
[4] = system: Mycobacterium tuberculosis; test: Potency index, ratio of ethambutol MIC to test compound MIC for antitubercular activity against Mycobacterium tuberculosis H37Rv assessed as bacterial growth inhibition; format: functional
[5] = system: Mycobacterium tuberculosis; test: Antitubercular activity against Mycobacterium tuberculosis H37Rv assessed as bacterial growth inhibition measured after 7 days by MABA method; format: functional; conditions: 168 h, time 7 day
[6] = system: Mycobacterium tuberculosis; test: Antitubercular activity against Mycobacterium tuberculosis H37Rv ATCC 27294 assessed as bacterial growth inhibition measured after 9 days by twofold agar dilution method; format: functional; conditions: H37Rv ATCC 27294, 216 h, time 9 day
[7] = system: Mycobacterium tuberculosis; test: Antitubercular activity against dormant stage of Mycobacterium tuberculosis H37Ra ATCC 25177 assessed as bacterial growth inhibition by XTT assay; format: functional
[8] = system: Mycobacterium tuberculosis; test: Antitubercular activity against Mycobacterium tuberculosis mc 2 7000 assessed as bacterial growth inhibition; format: functional
[9] = system: Mycobacterium tuberculosis; test: Antitubercular activity against Mycobacterium tuberculosis H37Rv assessed as reduction in relative light units at 2 ug/ml incubated for 4 hrs followed by addition of D-luciferin by luciferase based luminometer analysis relative to control; format: functional; set-up: scale not given: the % may be the effect or the level left; conditions: dose 2 µg/ml
[10] = system: Mycobacterium tuberculosis; test: Antitubercular activity against active stage of Mycobacterium tuberculosis H37Ra ATCC 25177 assessed as bacterial growth inhibition by XTT assay; format: functional
[11] = system: Mycobacterium tuberculosis; test: Antitubercular activity against Mycobacterium tuberculosis H37Rv assessed as bacterial growth inhibition measured after 7 days by direct susceptibility assay; format: functional; conditions: 168 h, time 7 day

O=C1CC2CN(c3ccc(N4C[C@H](Cn5ccnn5)OC4=O)cc3F)CC2C1 (some centres not stated)
MIC [1]: 0.5 µg/mL (≈ 1.3 µM)

COc1c(N2CCN(C(=O)Cn3cc(CN4C(=O)C(=O)c5cc(C)ccc54)nn3)C(C)C2)c(F)cc2c(=O)c(C(=O)O)cn(C3CC3)c12 (configuration not stated)
MIC [2]: 1 µg/mL (≈ 1.52 µM)
CC50 [3]: 64 µg/mL (≈ 97.3 µM)

O=C(N/N=C1\C(=O)N(Cc2ccc(Cl)cc2)c2ccccc21)c1ccc(-n2cc(-c3ccccc3)nn2)cc1O
Ratio [4]: 8
MIC [5]: 0.39 µg/mL (≈ 0.71 µM)

O=C(OCc1cn(CCCc2ccccc2)nn1)c1ccc(F)cc1
MIC [6]: 3.75 µg/mL (≈ 11 µM)

CO[C@H]1/C=C/O[C@@]2(C)Oc3c(C)c(O)c4c(O)c(c(/C=N/N5CCN(C)CC5)c(O)c4c3C2=O)NC(=O)/C(C)=C\C=C\[C@H](C)[C@H](O)[C@@H](C)[C@@H](O)[C@@H](C)[C@H](OC(C)=O)[C@@H]1C [RIFAMPIN]
MIC [7]: 0.075 µg/mL (≈ 0.0911 µM)
MIC [5]: 0.2 µg/mL (≈ 0.243 µM)
MIC [8]: 0.12 µM (≈ 0.0988 µg/mL)
Activity [9]: 87%
MIC [10]: 0.074 µg/mL (≈ 0.0899 µM)
MIC [11]: 0.043 µg/mL (≈ 0.0523 µM)
